Measurements from patent US8178509B2, “Method to treat sickle cell disease” (University of Virginia Patent Foundation, priority 2006, dated 2012).

Legend:
[1] = test system: leukocyte interactions with the endothelium; assay: Intravital microscopy of exteriorized cremaster muscle, leukocyte adhesion; format: in vivo, NY-S (NY1DD) mice; conditions: no hypoxia
From the text: An exteriorized cremaster muscle preparation was used to study the microcirculation in vivo as a means of assaying the effect of the test compounds, e.g., ATL146e, on leukocyte interactions with the endothelium. […] In this experiment, mice were not stressed with hypoxia, but the manipulation of the cremaster tissue for microscopic examination itself produces some rolling and adherence of leukocytes, probably due to release of chemokines from damaged tissue. Adherent leukocytes were defined as those which moved less than one circumference in an observational period (30 seconds/vessel). […]
Microscopic observations were made on a Zeiss intravital microscope (Axioskop, Carl Zeiss, Inc., Thomwood, N.Y.) with a saline immersion objective (SW 40/0.75) visualized under bright field illumination. […] Randomly selected venules with diameters between 19 and 54 μm were recorded for 1.5 minutes.
A MicroMotion DC30 video compression card (Pinnacle Systems, Mountain View, Calif.) was used to digitize video recordings from a JVC HR-53600U VHS recorder into a Macintosh computer (Adobe Premiere software). Digitized video clips were analyzed with the public domain NIH image program with custom-written macros. […] Individual comparisons between groups were calculated using a one-tailed t test with p<0.05.

platelets = assay: Platelet aggregation (singlet loss) in platelet-rich plasma after in vivo pretreatment, ADP activation; parameters: species or system NY-S (NY1DD) mice; conditions: pretreated in vivo, Alzet mini-pump, 10 ng/kg/min, O/N; all doses of ADP added in vitro
Description: Adenosine 5′-diphosphate (ADP) is a critical mediator of platelet activation. Two members of the P2Y-receptor family (P2Y1, P2Y12) are responsible for the initiation and amplification of the aggregation response.
Mice were first anesthetized with the use of a vaporizer (Vapomatic, A.M. Bickford, INC., Wales Center, N.Y.) delivering 1.5% isoflurane (Abbott Laboratories, Chicago, Ill.). The animals were ventilated with 100% oxygen (tidal volume 0.3 mL; rate 125 breaths/min; respiratory/expiratory ratio 1; positive end-expiratory pressure (PEEP) was between 5 and 10 cm H2O) at a low rate of 0.8 L/min via an animal ventilator (Columbus Instruments, Columbus, Ohio).
Platelet isolation. […]
Platelet aggregation assay—single particle counting. […] The reaction was quenched with glutaraldehyde (1%), and platelet aggregation then evaluated by the loss of platelet singlets, using a resistive-particle counter. The loss of platelet singlets was expressed as a percent value of the control platelet count (platelet count in PRP incubated for 10 minutes in 37° C. in the absence of shear forces).

NY-S (NY1DD) mice [2] = assay: Unrestrained whole-body plethysmography during hypoxic stress; format: in vivo; conditions: 3 hour hypoxic stress (8% O2), Alzet pump, 10 ng/kg/min, overnight
Description: Clinicians have disclosed that breathing disorders can occur in SCD patients during vaso-occlusive crisis (VOC). […] Pain-associated shallow breathing during sickle crisis may contribute to the pathogenesis of acute chest syndrome. To characterize the extent of hypoxia-induced lung injury in NY-S (NY1DD) mice, pulmonary function was assessed using unrestrained whole-body plethysmography during and after exposure to hypoxic air. Naïve NY-S (NY1DD) mice were compared to NY-S (NY1DD) mice which had been treated with ATL146e (Alzet pump, 10 ng/kg/min, overnight). […] Plexiglas chambers (4 in diameter) are connected to a direct airflow sensor (Buxco Max II, Buxco Electronics). Constant airflow through the chambers is maintained at 70 ml/min. The flow signals are amplified by a channel amplifier (EMKA Technologies), converted to a digital signal, and recorded using IOX software (EMKA Technologies). The respiratory parameters minute ventilation (MV, ml/min), respiratory frequency (f, breaths/min), expiratory time (TE, msec), and relaxation time (RT, msec) are calculated and plotted as change over time. The chambers are calibrated by injecting 1 ml of air. The mice are placed unrestrained into the chambers and after a 30 min adjustment period, respiratory activity is recorded while the animal breathes either ambient air or hypoxic gas (8% O2).

NY-S (NY1DD) mice [3] = assay: Pulmonary histology (H&E), hypoxia-induced vascular congestion; format: in vivo; conditions: 3 hour hypoxia (10% O2); Alzet mini-pump, 10 ng/kg/min, overnight, started prior to hypoxic stress
Description: Under normoxic conditions, while the lungs of the wild type mice are clear, there is a high incidence of focal vascular congestion in the NY-S (NY1DD) mice (FIGS. 6A & 6B, see arrows). The disseminated pink color throughout the section may be due to elevated numbers of possibly adherent capillary red cells. The extent of vascular congestion is exacerbated in the NY-S (NY1DD) mice following 3 hour of hypoxia (10% O2; FIG. 6c). The increased susceptibility of the NY-S (NY1DD) mice to hypoxia-induced lung injury is evidenced both as an increase in the total area of involvement and the size of the vessels congested (see arrow, FIG. 6C).

NY-S (NY1DD) mice [4] = assay: Gamma camera imaging of hypoxia-sensitive tracer BRU59-21 in lungs; format: in vivo; conditions: 3 hours hypoxia (10% O2)/1 hour reoxygenation; Alzet mini-pump, 10 ng/kg/min, O/N; untreated vs treated
Description: Animals were subject to 3 hours hypoxia (10% O2)/1 hour reoxygenation. After 30 minutes of reoxygenation the mice were given a bolus intra-jugular injection of BRU59-21 (˜300 μCi). At the end of the reoxygenation period planar gamma camera images were taken with a ten minute acquisition window. The images in FIG. 7 show tracer accumulation in the tissues of hypoxic C57BL/6 and NY-S (NY1DD) mice. […] There is a large non-specific signal present in the abdomen due to hepatic metabolism and clearance of the tracer via the intestinal tract. Anterior to the abdominal signal is a bilateral signal which is absent from the C57/B6 mice and localized to the lungs in the NY-S (NY1DD) mouse.
C57BL/6 and NY-S (NY1DD) mice were subject to 3 hour hypoxia/1 hour reperfusion (10% O2). Thirty minutes after the start of the reperfusion period the mice were anesthetized (ketamine 125 mg/kg; xylazine 12.5 mg/kg, IP) and given a bolus intra jugular injection of BRU59-21 (˜300 μCi). At the end of the reperfusion period planar gamma camera images were collected. Anesthetized mice were imaged side-by-side in planar mode directly on the inverted face of a low energy, high resolution (LEHR) collimator mounted on a Siemens Orbiter gamma camera (Siemens Medical Solutions USA, Inc., Malvern Pa.). […]

C57BL/6 MAECs = assay: Static WEHI monocyte adhesion assay on murine aortic endothelial cells; format: cell-based, C57BL/6 mice; conditions: murine TNFα 10 U/ml, positive control
Description: Adhesion of both sickle RBCs and leukocytes in SCD is believed dependent on endothelial activation. […] Murine aortic endothelial cells (MAECs) were prepared from C57BL/6 and NY-S (NY1DD) mice. In a static adhesion assay using WEHI monocytes activation of the endothelium as manifested by increasing monocyte adhesion can be quantified. MAECs prepared from C57BL/6 mice form a monolayer which is not highly activated as assessed by the small number of adherent monocytes. As a positive control for endothelial activation C57BL/6 MAECs were stimulated with murine TNFα (10 U/ml). […] Clearly, the endothelium of NY-S (NY1DD) sickle mice is in a state of activation at baseline.
Aortic endothelial cells from C57BL/6J and NY-S (NY1DD) mice were harvested from the aorta under sterile conditions. A monocyte adhesion assay that utilizes primary MAECs and WEHI78/24 cells were performed according to Hatley et al. WEHI cells are labeled with calcein-AM using standard methods described by the manufacturer (Molecular Probes). For the adhesion assay, MAECs were cultured to confluency in a 48-well plate and incubated with 35,000 calcein-labeled WEHI cells/well for 30 min at 37° C. Non-adherent cells were rinsed, and adherent cells were fixed with 1% glutaraldehyde. The number of adherent monocytes within a 10×10 eyepiece grid at 40× magnification was counted using an epifluorescence microscopy. […]

| Compound | leukocyte adhesion (adherent leukocytes/field) ([1]; bolus injection, intraperitoneal, 5 μg/kg, 30 minutes prior to cremaster exteriorization) | leukocyte adhesion (adherent leukocytes/field) ([1]; infusion, Alzet mini-pump, 10 ng/kg/min, overnight) | platelet activation in platelet rich plasma (platelets) | minute volume (NY-S (NY1DD) mice [2]) | breathing frequency (NY-S (NY1DD) mice [2]; n=2 each group) | severity of hypoxia-induced vascular congestion in lung (NY-S (NY1DD) mice [3]) | lung-specific BRU59-21 signal intensity in thoracic cavity (qualitative) (NY-S (NY1DD) mice [4]) | number of monocytes captured (endothelial activation) (C57BL/6 MAECs) |
| --- | --- | --- | --- | --- | --- | --- | --- | --- |
| CCNC(=O)C1OC(n2cnc3c(N)nc(C#CCC4CCC(C(=O)OC)CC4)nc32)C(O)C1O (centres unmarked) [ATL146e, 4-{3-[6-Amino-9-(5-ethylcarbamoyl-3,4-dihydroxy-tetrahydro-furan-2-yl)-9H-purin-2-yl]-prop-2-ynyl}cyclohexanecarboxylic acid methyl ester] | pronounced reduction in leukocyte adhesion | pronounced reduction in leukocyte adhesion | reduced to below control levels | respiratory stress of hypoxia was alleviated | significantly reduced | significantly reduced | significantly more lung-specific signal in the untreated mice | – |
| TNFα | – | – | – | – | – | – | – | three-fold increase |
